Assay results from PubChem BioAssay (NCI).
Several values for one entry are separate records, joined by “and”; a condition that tells them apart may be missing. Equal entries are not always repeated.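 Assay format: 96-well plates, 48-hour exposure. GI50: concentration for 50% inhibition of growth. TGI is the concentration that stops growth completely.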

Experiments:
Experiment in all cases: inhibition of tumour cell growth, NCI panel, 48 h
[1] = test system: BT-549 breast
[2] = test system: CCRF-CEM leukemia
[3] = test system: M14 melanoma
[4] = test system: MCF7 breast
[5] = test system: NCI-H23 lung
[6] = test system: NCI-H460 lung
[7] = test system: NCI/ADR-RES ovarian
[8] = test system: UO-31 renal

SMILES	GI50 [1]	TGI [1]	GI50 [2]	TGI [2]	GI50 [3]	TGI [3]	GI50 [4]	TGI [4]	GI50 [5]	TGI [5]	GI50 [6]	TGI [6]	GI50 [7]	TGI [7]	GI50 [8]	TGI [8]
COc1ccc(-c2cn(-c3cc(OC)c(OC)c(OC)c3)c(=O)[nH]2)cc1OC	> 100 µM	> 100 µM	> 100 µM	> 100 µM	> 100 µM	> 100 µM	> 100 µM	> 100 µM	> 100 µM	> 100 µM	> 100 µM	> 100 µM	> 100 µM	> 100 µM	> 100 µM	> 100 µM
Cc1cccc(Cl)c1NC(=O)c1cnc(Nc2cc(N3CCOCC3)cc(S(C)(=O)=O)c2)s1	9.75 µM	> 10 µM	> 10 µM	> 10 µM	4.01 µM	> 10 µM	> 8.99 µM	> 10 µM	> 10 µM	> 10 µM	> 9.52 µM	> 10 µM	9.94 µM	> 10 µM	0.199 µM	> 6.98 µM
Cc1ccc(OCCOCCOCCOCCOCCOc2ccc(C)n(O)c2=S)c(=S)n1O	0.103 µM	> 64.5 µM	0.0504 µM	> 100 µM	0.0619 µM	0.43 µM	0.0254 µM	> 69.7 µM	0.08 µM	> 100 µM	0.0252 µM	11.6 µM	0.0478 µM	> 77 µM	0.0377 µM	2.02 µM
COc1cc(/C=C/C(=O)c2c(-c3ccc(F)cc3)nc3sc(C)nn23)cc(OC)c1OC	2.55 µM	7.09 µM	2 µM	5.95 µM	3.05 µM	8.1 µM	3.03 µM	16.5 µM	2.98 µM	9.55 µM	1.94 µM	4.08 µM	2.57 µM	9.91 µM	1.95 µM	4.94 µM
CC1Cc2ccccc2N1C(=O)Cc1nc(N2CCOCC2)cc(=O)[nH]1 (stereo not given)	1.37 µM and 5.58 µM	57.2 µM and > 94.7 µM	20.7 µM and 46.7 µM	> 100 µM	13.8 µM and 27 µM	> 100 µM	2.3 µM and 4.77 µM	> 100 µM	48.7 µM and > 91.5 µM	> 100 µM	17.2 µM and 32 µM	> 100 µM	64.5 µM and > 88.6 µM	> 100 µM	2.26 µM and 3.28 µM	> 100 µM
CC/C=C\C[C@H](O)C/C=C1/C(=O)C=C[C@@H]1C/C=C\CCCCO	2.46 µM	6.68 µM	2.43 µM	16.5 µM	2.06 µM	6.17 µM	0.544 µM	10.6 µM	2.26 µM	5.95 µM	2.93 µM	9.24 µM	3.35 µM	38.4 µM	1.63 µM	3.23 µM
CN(C)Cc1c(C(=O)NCCOc2ccc(C(=O)NO)cc2)oc2ccccc12	0.519 µM	13.8 µM	0.135 µM	25.8 µM	0.223 µM	1.68 µM	0.261 µM		0.267 µM	2.06 µM	0.221 µM	> 100 µM	0.306 µM	4.27 µM	0.296 µM	2.66 µM
NCCSC(c1ccccc1)(c1ccccc1)c1ccccc1	3.51 µM	14.2 µM	1.85 µM	6 µM	0.354 µM	1.15 µM	0.354 µM	1.78 µM	3.38 µM	13.6 µM	1.31 µM	4.01 µM	1.86 µM	5.71 µM	2.03 µM	12.9 µM
[Cu+2].[NH-]C(CC(=O)O)C(=O)O.[NH-]C(CC(=O)O)C(=O)O (stereo not given)	> 100 µM	> 100 µM	0.929 µM	> 100 µM	> 100 µM	> 100 µM	52.3 µM	> 100 µM	> 100 µM	> 100 µM	> 100 µM	> 100 µM	> 100 µM	> 100 µM	> 100 µM	> 100 µM
O=C(c1ccccc1)c1nc2ccc(C(F)(F)F)cc2nc1N1CCN(c2ccccc2)CC1	32 µM	84.5 µM	21 µM	> 100 µM	23.2 µM	55.3 µM	48.2 µM	> 100 µM	25.7 µM	69.5 µM	52.1 µM	> 100 µM	34.2 µM	> 100 µM	31.7 µM	> 100 µM
COc1cc2c(c(OC)c1OC)-c1c(c3ccc([N+](=O)[O-])cc3c(=O)n1CCCN)C2=O	14.4 µM	46.9 µM	0.826 µM	2.12 µM	0.835 µM	1.53 µM	14.2 µM	> 50 µM	2.35 µM	10.2 µM	15.9 µM	> 50 µM	5.49 µM	15.6 µM	0.892 µM	1.68 µM
Cn1cc(C2=C(c3cn(CCCCCO)c4ccccc34)C(=O)NC2=O)c2ccccc21	4 µM	10.9 µM	3.01 µM	> 16.6 µM	5.38 µM	> 25 µM	3.56 µM	> 22.5 µM	5.34 µM	16.5 µM	6.01 µM	14.8 µM	7.04 µM	> 22.5 µM	4.11 µM	12.9 µM
NC(N)=N/N=C/c1c(-c2cccnc2)nc2sc(Cl)cn12	16.3 µM	32.4 µM	6.66 µM	23.9 µM	16.5 µM	30.1 µM	8.27 µM	> 100 µM	16.1 µM	31.7 µM	61.2 µM	> 100 µM	52.2 µM	> 100 µM	33.8 µM	> 100 µM
CN1C(=O)C2(c3ccccc31)C1CC3C(CO1)C1C2C3(CO)CN1C#N (stereo not given)		> 100 µM		> 100 µM		> 100 µM		> 100 µM		> 100 µM		> 100 µM		> 100 µM		> 100 µM
O=C1CC(N2C(=O)/C(=C/C(Cl)=C\c3ccc([N+](=O)[O-])cc3)SC2=S)C(=O)N1c1ccc(O)cc1 (stereo not given)	2.03 µM	4.21 µM	0.385 µM	3.87 µM	1.46 µM	3.31 µM	1.21 µM	10.7 µM	1.56 µM	3.52 µM	2.55 µM	6.75 µM	2.13 µM	12.1 µM	1.35 µM	2.79 µM
Cc1ccccc1C(C(=O)NC1CCCCC1)N(C(=O)CNc1ccc(C#N)cc1)c1cccc(F)c1 (stereo not given)	32.5 µM	> 100 µM	> 100 µM	> 100 µM	80.9 µM	> 100 µM	49.8 µM	> 100 µM	25.1 µM	> 77.6 µM	34.4 µM	> 100 µM	26.2 µM	> 100 µM	> 93.5 µM	> 100 µM
Oc1ccccc1/C=N\NC(=S)N/N=C/c1ccccc1O	13.9 µM	> 100 µM	0.648 µM	> 100 µM	1.63 µM	6.33 µM	2.38 µM	40.3 µM	3.91 µM	> 100 µM	0.62 µM	12.1 µM	0.543 µM	> 100 µM	0.489 µM	4.91 µM
O=c1cccc2n1CC1CNC[C@H]2C1		> 100 µM		> 100 µM		> 100 µM		> 100 µM		> 100 µM		> 100 µM		> 100 µM		> 100 µM
COC(=O)c1oc2c(C(=O)/C=C/c3ccc(OC)cc3)c(OCCN3CCOCC3)ccc2c1C	2.42 µM	7.91 µM	0.395 µM	2.53 µM	3.11 µM	12.1 µM	0.97 µM	7.33 µM	1.91 µM	5.46 µM	1.91 µM	4.75 µM	2.48 µM	> 24 µM	1.89 µM	5.25 µM
COc1ccc(OC)c(/C=C/c2ccnc3ccccc23)c1		14.4 µM		5.91 µM		17.8 µM		17.4 µM		5.72 µM		12.3 µM		1.56 µM		6.99 µM
Cn1c(=O)c(Oc2ccc(F)cc2F)cc2cnc(NC3CCOCC3)nc21	> 25 µM	> 25 µM	> 25 µM	> 25 µM	> 25 µM	> 25 µM	> 25 µM	> 25 µM	> 25 µM	> 25 µM	> 25 µM	> 25 µM	> 25 µM	> 25 µM	8.06 µM	> 19.3 µM
CC1(C)CCC(C)(C)c2cc(NC(=O)c3ccc(C(=O)O)cc3)ccc21		68.1 µM		> 31.6 µM		> 65.1 µM		> 83.2 µM		53.9 µM		> 62.7 µM		> 86.1 µM		39.5 µM
CN(C)CCS(=O)(=O)Nc1cc(-c2ccc3ncc(C#N)c(Nc4ccc(F)c(Cl)c4)c3c2)cnc1Cl	0.107 µM	0.485 µM	0.11 µM	8.46 µM	0.255 µM	1.27 µM	0.106 µM	1.39 µM	0.159 µM	0.469 µM	0.612 µM	3.72 µM	2.11 µM	> 29.3 µM	0.188 µM	1.29 µM
